The test system of experiment [1] is S. pneumoniae. Description: MIC, standard antibiogram based on microdilution. In kind it is cell-based. The following applies: Streptococcus pneumoniae. The method, then:
A quantitative method may rely on dilution in a series of broths or agar solutions having progressively lower concentrations of the antibiotic in question. The lowest concentration of antibiotic in which the bacteria cannot grow provides the minimum inhibitory concentration of that antibiotic to the tested strain of bacteria. This quantitative method may be routinely employed in the hospitals, usually using commercial panels of antibiotics and semi-automated systems of incubation and software for data interpretation like the MicroScan WalkAway™ (Siemens), Phoenix (Becton Dickinson), or Vitek™ 2 (bioMérieux). With such growth-dependent automated systems, results of susceptibility or resistance to antimicrobians from a specific microorganism may be obtained in around 6-9 hours.
(§1) In an exemplification of this principal, two strains of S. pneumoniae growing in Mueller-Hinton II broth complemented with cations and 2-5% lysed horse blood, at 37° C. with 5% CO2, were assayed. […] The purpose of the assay was to distinguish rapidly the susceptible and the resistant (i.e. non-susceptible) strain to azithromycin.
(In general: In broth dilution the organism is exposed to a series of concentrations in liquid medium.)

Experiment [2] deals with S. pneumoniae. Briefly: Micromax assay of autolysis and DNA fragmentation induced by Triton-lysozyme-EDTA after azithromycin (Example 4). The experiment is classed as cell-based, Streptococcus pneumoniae. The following applies: for cells lysed and with fragmented DNA: azithromycin 0.5 μg/ml 60 min followed by Triton-lysozyme-EDTA 5 min; for less fragmentation than incubation with Triton-lysozyme-EDTA alone: azithromycin 0.5 μg/ml 60 min followed by Triton-lysozyme-EDTA. The method, then: as §1
Each of these two strains were subjected to four treatments. A first portion of both strains was incubated with azithromycin at a concentration of 0.5 μg/ml for 60 min. The dose was that indicated by the CLSI as the breakpoint of susceptibility to azithromycin in the standard antibiogram based on microdilution. Another portion of both strains was incubated with 0.05% Triton X-100, 2 mg/ml lysozyme, 25 mM EDTA, 5 min. Still another portion of each strain was incubated with azithromycin at 0.5 μg/ml for 60 min followed by 0.05% Triton X-100, 2 mg/ml lysozyme, 25 mM EDTA, 5 min, without removing the azithromycin. A final portion of each strain remained without any antibiotics.
After incubation cells were processed using the variant of the Micromax technology to visualize the nucleoids. In the same manner indicated previously, samples from cells from the culture are immersed in an agarose microgel on a slide and incubated with a specific lysing solution to remove the cell wall in all the cells and release in the microgel the nucleoids contained inside the bacteria. […] The microgels are dried, stained with a high sensitive fluorochrome for DNA like SYBR Gold and visualized under fluorescence microscopy.

For another experiment, the system named is Staphylococcus aureus. Description: Micromax assay of DNA fragmentation by DNase released with lysostaphin after azithromycin (Example 3). The experiment is classed as cell-based. The following applies: for DNA fragmentation of released nucleoids: azithromycin 2 μg/ml 120 min followed by lysostaphin 10 μg/ml 1 min. The method, then:
In an exemplification of this principal, two strains of S. aureus growing in Mueller-Hinton agar with 5% sheep blood were assayed. One strain was susceptible to the macrolide azithromycin (an inhibitor of protein synthesis) (FIGS. 13-15) and the other strain was a clinical isolate resistant to azithromycin (FIGS. 16-18). The purpose was to rapidly distinguish susceptible and non-susceptible strains to azithromycin. Cultures were processed direct from standard growing agar plates 18-24 h and it was not necessary the cells being exponentially growing previously to the assay.
Each of these strain was subjected to four treatments. One portion of both strains was incubated with azithromycin at 2 μg/ml for 120 min; 2 μg/ml being indicated by the CLSI as the breakpoint of susceptibility to azithromycin. The cells were then lysed to release nucleoids and images of FIGS. 13 and 16 were generated. Another portion of each strain was incubated with lysostaphin at 10 μg/ml for 1 min. FIGS. 14 and 17 depict the nucleoids released in each strain for this treatment. Still another portion was incubated with Azithromycin at 2 μg/ml for 120 min followed by lysostaphin at 10 μg/ml for 1 min, without removing the azithromycin. The assays for these treatments can be seen at FIGS. 15 and 18. A final portion was left without either antibiotic.
After the incubation, the cells were processed using the variant of a Micromax technology to lyse cells with affected cell walls. As indicated previously, samples from cells from the culture are immersed in an agarose microgel on a slide and incubated with a specific lysing solution to remove the cell wall in those cells affected by lysostaphin and release in the microgel the nucleoids contained inside the bacteria. These are dried, stained with a highly sensitive fluorochrome for DNA like SYBR Gold and visualized under fluorescence microscopy.

The test system of another experiment is H. influenzae. Briefly: Cell enlargement by low-dose mitomycin C after azithromycin. In kind it is cell-based, Haemophilus influenzae. The following applies: azithromycin 4 μg/ml 30 min followed by mitomycin C 0.5 μg/ml 120 min; azithromycin-resistant strain. The method, then:
In one exemplification, two strains of H. influenzae exponentially growing in Mueller-Hinton broth were incubated under four differing treatments and then assayed. One strain was susceptible and the other resistant to the macrolide azithromycin (an inhibitor of protein synthesis). For the purpose of rapidly distinguishing the susceptible and the resistant strain to azithromycin each strain was incubated under four sets of conditions.
A portion of each strain was incubated with azithromycin at 4 μg/ml for 150 minutes. The dose azithromycin corresponded to the dose indicated by the CLSI as the breakpoint of susceptibility to azithromycin in the standard antibiograms based on microdilution. Another portion of each strain was incubated with Mitomycin C at 0.5 μg/ml for 120 minutes. Still another portion was incubated with azithromycin at 4 μg/ml for 30 min followed by mitomycin C at 0.5 μg/ml for 120 min, without removing the azithromycin. A final portion of each strain was not incubated with any antibiotics.

The mark [3] stands for this setting: azithromycin-susceptible strain.

In brackets after ≈: the same amount, converted by molar mass.

As usually defined, the MIC is the least concentration at which growth counts as inhibited.

Regarding `CC[C@H]1OC(=O)[C@H](C)[C@@H](O[C@H]2C[C@@](C)(OC)[C@@H](O)[C@H](C)O2)[C@H](C)[C@@H](O[C@@H]2O[C@H](C)C[C@H](N(C)C)[C@H]2O)[C@](C)(O)C[C@@H](C)CN(C)[C@H](C)[C@@H](O)[C@]1(C)O` [azithromycin], the MIC was > 32 µg/mL against S. pneumoniae [1] (azithromycin-resistant strain) and 0.25 µg/mL (≈ 0.334 µM) against S. pneumoniae [1] (setting [3]). The figures for the “cells lysed and with fragmented DNA” value with S. pneumoniae [2] (resistant strain) and in the experiment with S. pneumoniae [2] (susceptible strain) were 86% and “about 40%”, respectively. For the same compound, the “less fragmentation than incubation with Triton-lysozyme-EDTA alone” value with S. pneumoniae [2] (resistant strain) came out at 7%; in the experiment on S. pneumoniae [2] (susceptible strain), 44%. Besides, in the experiment with S. pneumoniae [2] (azithromycin alone 0.5 μg/ml 60 min, both strains), the “modification of the bacteria” value is given as “did not result in modification of the bacteria”. Besides, the “DNA fragmentation of released nucleoids” value is “a large extend of DNA fragmentation” in the experiment with Staphylococcus aureus (azithromycin-resistant clinical isolate) and “strongly reduced level of DNA fragmentation or even suppression of DNA fragmentation” in the experiment with Staphylococcus aureus (setting [3]). For the same compound, the “modification of the appearance of the bacteria” value in the experiment with Staphylococcus aureus (azithromycin alone 2 μg/ml 120 min, both strains) was “did not result in modification of the appearance of the bacteria”. Also, in the experiment on H. influenzae, the cell enlargement result is listed as “the bacteria appeared enlarged”.

(Values after patent US10472663B2, “Procedure for the rapid determination of bacterial susceptibility to antibiotics that inhibit protein synthesis” (ABM TECHNOLOGIES, LLC, priority 2015, dated 2019).)
